# From patent EP4001279A1, “NOVEL SPIROPYRROLIDINE DERIVED ANTIVIRAL AGENTS” (Enanta Pharmaceuticals, Inc., priority 2020, dated 2022)
# Test system: 229E human corona virus (hCoV)
# Assay: 229E live virus assay (CPE, ATPlite readout in MRC-5 cells)
# Assay type: cell-based, hCoV-229E
# Details: Human coronavirus 229E, MRC5, hCoV-229E live virus, MOI 0.05, ATPlite readout, run in duplicate
row,Structure (SMILES),EC50 [nM]
1,COc1ccc(C(=O)N(C)[C@@H](CC(C)C)C(=O)N2C[C@]3(C[C@H]2C#N)C(=O)Nc2ccccc23)cc1C(F)(F)F [Example 181],< 100
2,COc1ccc(C(=O)N(C)[C@@H](CC(C)C)C(=O)N2C[C@]3(C[C@H]2C#N)C(=O)Nc2ccccc23)cc1F [Example 182],< 100
3,CC(C)C[C@@H](C(=O)N1C[C@]2(C[C@H]1C#N)C(=O)Nc1ccccc12)N(C)C(=O)c1c(Cl)cc(Cl)cc1Cl [Example 185],< 100
4,CC(C)C[C@@H](C(=O)N1C[C@]2(C[C@H]1C#N)C(=O)Nc1ccccc12)N(C)C(=O)c1c(Cl)cc(F)cc1Cl [Example 186],< 100
5,CC(C)C[C@@H](C(=O)N1C[C@]2(C[C@H]1C#N)C(=O)Nc1ccccc12)N(C)C(=O)c1cc(Cl)cc(C#N)c1 [Example 187],< 100
6,CC(C)C[C@@H](C(=O)N1C[C@]2(C[C@H]1C#N)C(=O)Nc1ccccc12)N(C)C(=O)c1cccc(OC(F)F)c1 [Example 188],< 100
7,CC(C)C[C@@H](C(=O)N1C[C@]2(C[C@H]1C#N)C(=O)Nc1ccccc12)N(C)C(=O)c1cccc(OC(F)(F)F)c1 [Example 189],< 100
8,CC(C)C[C@@H](C(=O)N1C[C@]2(C[C@H]1C#N)C(=O)Nc1ccccc12)N(C)C(=O)c1ccc2c(c1)OC(F)(F)O2 [Example 190],< 100
9,COc1ccnc(C(=O)N(C)[C@@H](CC(C)C)C(=O)N2C[C@]3(C[C@H]2C#N)C(=O)Nc2ccccc23)c1 [Example 192],< 100
10,COc1ccc(C(=O)N(C)[C@@H](CC(C)C)C(=O)N2C[C@]3(C[C@H]2C#N)C(=O)Nc2ccccc23)nc1 [Example 193],< 100
11,CC(C)C[C@@H](C(=O)N1C[C@]2(C[C@H]1C#N)C(=O)Nc1ccccc12)N(C)C(=O)c1ccncc1 [Example 194],< 100
12,CC(C)C[C@@H](C(=O)N1C[C@]2(C[C@H]1C#N)C(=O)Nc1ccccc12)N(C)C(=O)c1cncc(C(F)(F)F)c1 [Example 195],< 100
13,CC(C)C[C@@H](C(=O)N1C[C@]2(C[C@H]1C#N)C(=O)Nc1ccccc12)N(C)C(=O)c1cncc(F)c1 [Example 196],< 100
14,CC(C)C[C@@H](C(=O)N1C[C@]2(C[C@H]1C#N)C(=O)Nc1ccccc12)N(C)C(=O)c1cc(F)ccn1 [Example 197],< 100
15,CC(C)C[C@@H](C(=O)N1C[C@]2(C[C@H]1C#N)C(=O)Nc1ccccc12)N(C)C(=O)c1ccc(F)cn1 [Example 198],< 100
16,CC(C)C[C@@H](C(=O)N1C[C@]2(C[C@H]1C#N)C(=O)Nc1ccccc12)N(C)C(=O)c1cccc(N)n1 [Example 199],< 100
17,CC(C)C[C@@H](C(=O)N1C[C@]2(C[C@H]1C#N)C(=O)Nc1ccccc12)N(C)C(=O)c1cnccn1 [Example 200],< 100
18,CC(C)C[C@@H](C(=O)N1C[C@]2(C[C@H]1C#N)C(=O)Nc1ccccc12)N(C)C(=O)c1cn(C)cn1 [Example 201],< 100
19,CC(C)C[C@@H](C(=O)N1C[C@]2(C[C@H]1C#N)C(=O)Nc1ccccc12)N(C)C(=O)c1ccn[nH]1 [Example 202],< 100
20,CC(C)C[C@@H](C(=O)N1C[C@]2(C[C@H]1C#N)C(=O)Nc1ccccc12)N(C)C(=O)c1ccnn1C [Example 203],< 100
21,CC(C)C[C@@H](C(=O)N1C[C@]2(C[C@H]1C#N)C(=O)Nc1ccccc12)N(C)C(=O)c1ccn(C)n1 [Example 204],< 100
22,CC(C)C[C@@H](C(=O)N1C[C@]2(C[C@H]1C#N)C(=O)Nc1ccccc12)N(C)C(=O)c1nc2ccccc2[nH]1 [Example 205],< 100
23,CC(C)C[C@@H](C(=O)N1C[C@]2(C[C@H]1C#N)C(=O)Nc1ccccc12)N(C)C(=O)c1nc2ccccc2s1 [Example 206],< 100

row,Structure (SMILES),EC50 [nM]
1,CC(C)C[C@@H](C(=O)N1C[C@]2(C[C@H]1C#N)C(=O)Nc1ccccc12)N(C)C(=O)c1cc2ccccc2s1 [Example 207],< 100
2,CC(C)C[C@@H](C(=O)N1C[C@]2(C[C@H]1C#N)C(=O)Nc1ccccc12)N(C)C(=O)c1cc2ccccc2o1 [Example 208],< 100
3,CC(C)C[C@@H](C(=O)N1C[C@]2(C[C@H]1C#N)C(=O)Nc1ccccc12)N(C)C(=O)c1cc2sccc2[nH]1 [Example 209],< 100
4,CC(C)C[C@@H](C(=O)N1C[C@]2(C[C@H]1C#N)C(=O)Nc1ccccc12)N(C)C(=O)c1ccc2ncccc2c1 [Example 210],< 100
5,CC(C)C[C@@H](C(=O)N1C[C@]2(C[C@H]1C#N)C(=O)Nc1ccccc12)N(C)C(=O)c1ccc2ccccc2n1 [Example 211],< 100
6,CC(C)C[C@@H](C(=O)N1C[C@]2(C[C@H]1C#N)C(=O)Nc1ccccc12)N(C)C(=O)c1cc2ccccc2cn1 [Example 212],< 100
7,CC(C)C[C@@H](C(=O)N1C[C@]2(C[C@H]1C#N)C(=O)Nc1ccccc12)N(C)C(=O)c1cnc2ccccc2c1 [Example 213],< 100
8,CC(C)C[C@@H](C(=O)N1C[C@]2(C[C@H]1C#N)C(=O)Nc1ccccc12)N(C)C(=O)c1cccc2ncccc12 [Example 214],< 100
9,CC(C)C[C@@H](C(=O)N1C[C@]2(C[C@H]1C#N)C(=O)Nc1ccccc12)N(C)C(=O)c1cccc2cnccc12 [Example 215],< 100
10,CC(C)C[C@@H](C(=O)N1C[C@]2(C[C@H]1C#N)C(=O)Nc1ccccc12)N(C)C(=O)c1ccc2cnccc2c1 [Example 216],< 100
11,CC(C)C[C@@H](C(=O)N1C[C@]2(C[C@H]1C#N)C(=O)Nc1ccccc12)N(C)C(=O)c1ccc2ccncc2c1 [Example 217],< 100
12,CC(C)C[C@@H](C(=O)N1C[C@]2(C[C@H]1C#N)C(=O)Nc1ccccc12)N(C)C(=O)c1ccc2cccnc2c1 [Example 218],< 100
13,CC(C)C[C@@H](C(=O)N1C[C@]2(C[C@H]1C#N)C(=O)Nc1ccccc12)N(C)C(=O)c1ccc2ccccc2c1 [Example 219],< 100
14,CC(C)C[C@@H](C(=O)N1C[C@]2(C[C@H]1C#N)C(=O)Nc1ccccc12)N(C)C(=O)c1cccc2ccccc12 [Example 220],< 100
15,CC(C)C[C@@H](C(=O)N1C[C@]2(C[C@H]1C#N)C(=O)Nc1ccccc12)N(C)C(=O)c1ccc(F)c2ccccc12 [Example 221],< 100
16,CC(C)C[C@@H](C(=O)N1C[C@]2(C[C@H]1C#N)C(=O)Nc1ccccc12)N(C)C(=O)c1ccc2cc(F)ccc2c1 [Example 222],< 100
17,CC(C)C[C@@H](C(=O)N1C[C@]2(C[C@H]1C#N)C(=O)Nc1ccccc12)N(C)C(=O)c1ccc2cn[nH]c2c1 [Example 223],< 100
18,CC(C)C[C@@H](C(=O)N1C[C@]2(C[C@H]1C#N)C(=O)Nc1ccccc12)N(C)C(=O)c1ccc2cnn(C)c2c1 [Example 224],< 100
19,CC(C)C[C@@H](C(=O)N1C[C@]2(C[C@H]1C#N)C(=O)Nc1ccccc12)N(C)C(=O)c1ccc2nc(N)sc2c1 [Example 225],100 to 1000
20,CC(C)C[C@@H](C(=O)N1C[C@]2(C[C@H]1C#N)C(=O)Nc1ccccc12)N(C)C(=O)Cc1ccccc1 [Example 226],< 100
21,CC(C)C[C@@H](C(=O)N1C[C@]2(C[C@H]1C#N)C(=O)Nc1ccccc12)N(C)C(=O)CCc1ccccc1 [Example 227],< 100
22,CC(C)C[C@@H](C(=O)N1C[C@]2(C[C@H]1C#N)C(=O)Nc1ccccc12)N(C)C(=O)/C=C/c1ccccc1 [Example 228],< 100
23,CC(C)C[C@@H](C(=O)N1C[C@]2(C[C@H]1C#N)C(=O)Nc1ccccc12)N(C)C(=O)COc1ccccc1 [Example 229],< 100
